Tests used:
human 5HT1A receptors = experiment: [3H] 8-OH-DPAT displacement binding, 5HT1A receptor affinity; conditions: displacement of [3H] 8-OH-DPAT; CHO cells stably transfected with human 5HT1A receptors
Description: 8-OH-DPAT (dipropylamino-tetralin) from the 5HT1A serotonin receptor following a modification of the procedure of Hall et al., J. Neurochem.

serotonin transporter = experiment: 3H-paroxetine displacement binding, serotonin transporter affinity; conditions: displacement of 3H-paroxetine from male rat frontal cortical membranes; read-out: 5-HT Transporter Affinity KI
[1] = molecular target: cloned human 5HT1A receptors; experiment: 35S-GTPγS binding assay, 5HT1A antagonist activity; format: biochemical; conditions: reversal of the effects of the standard agonist 8-OH-DPAT, read-out: 5HT1A Function IC50
Description: Agonists produce an increase in binding whereas antagonists produce no increase but rather reverse the effects of the standard agonist 8-OH-DPAT. The test compound's maximum inhibitory effect is represented as the Imax, while its potency is defined by the IC50.

| Structure (SMILES) | Ki (human 5HT1A receptors) | Ki (serotonin transporter) | IC50 [1] |
| --- | --- | --- | --- |
| Cc1ccc2c3c(ccc2n1)OCC(CN1CCC(Cc2c[nH]c4cc(Cl)ccc24)CC1)O3 (stereo not drawn) [Example 20, 2-({4-[(6-Chloro-1H-indol-3-yl)methyl]piperidin-1-yl}methyl)-8-methyl-2,3-dihydro[1,4]dioxino[2,3-f]quinoline] | 25.4 nM | 7 nM | 666 nM |
| CCc1cccc2c(CC3CCN(CC4COc5ccc6nc(C)ccc6c5O4)CC3)c[nH]c12 (stereo not drawn) [Example 19, 2-({4-[(7-Ethyl-1H-indol-3-yl)methyl]piperidin-1-yl}methyl)-8-methyl-2,3-dihydro[1,4]dioxino[2,3-f]quinoline] | 7.38 nM | 11 nM | 169 nM |
